Measured values taken from patent publication US20120065123A1, “Synthetic Antibodies” (priority 2009, published 2012).
Values belong to the substance of their own block, whether it stands above or below them. Bridges are numbered along the chain shown (N, C = ends). Roman numbers before positions name the chains, in order. Where no end group is shown, it is not given here. The star is where a group is joined. StBu = CC(C)(C)S*

Columns and labels:
Transferrin [1] = target: T1, Transferrin (Homo sapiens, UniProt P02787); experiment: SPR solution phase KD of candidate affinity elements, transferrin immobilized (Biacore T100); assay type: binding; conditions: steady-state response, 25° C., PBST
Method: Transferrin 25 μg/ml in immobilization buffer selected for correct pH was then applied 302 at a flow rate of 5 to 10 μl/min for a contact time of about 5 to 10 minutes, allowing the amine functionality on the transferrin 308 to displace the activated NHS ester and bond to the surface via an amide bond. Finally, ethylene diamine (1M ethylene diamine-HCl at pH 8.5) was applied 304 at a flow rate of 5 to 10 μl/min for a contact time of about 6 to 7 minutes to deactivate any remaining reactive groups on the dextran chip surface. Flow rates and contact times are adjusted as necessary to provide the surface concentration of target desired for the intended application, and may vary by target. In general, for evaluating whether binding occurs, it is preferable to immobilize a relatively large quantity of target, and higher flow rates and/or longer contact times may be used. For determining kinetics, it is preferable to limit the amount of target immobilized so as to minimize rebinding and avidity effects, and lower flow rates and/or contact times may be used.
Candidate affinity elements for the transferrin synbody TRF19, TRF21, TRF23, TRF24, TRF25, and TRF26 were individually evaluated for solution phase KD with respect to transferrin by SPR analysis. Because the off rates for these polypeptides were very high, KD values were estimated by measuring steady-state response for at least five concentrations in a two-fold dilution series, each concentration tested in duplicate. For each experiment, response data were processed using a reference surface to correct for bulk refractive index changes and any non-specific binding. Data were also double referenced using responses from blank running buffer injections. Each experiment was conducted at 25° C. using PBST (0.01M Phosphate Buffered Saline, 0.138M NaCl, 0.0027M KCl, 0.05% surfactant Tween20, pH 7.4) as the running buffer on a Biacore T100 instrument. Analytes were injected for 60 s at a flow rate of 30 μl/min. The antigen surfaces were regenerated with 30 s consecutive pulses of NaOH/NaCl (50 mM NaOH in 1M NaCl) and Glycine (10 mM glycine-HCl, pH 2.5).

Transferrin [2] = target: T1, Transferrin; experiment: Peptide microarray ranking, labeled transferrin with E. coli lysate competitor; assay type: binding
Method: Several polypeptides were identified as candidate affinity elements for synbodies against an arbitrarily chosen protein target, transferrin, by incubating transferrin on the polypeptide microarray in the presence of E. coli lysate competitor. Transferrin was randomly direct-labeled at free amines with Alexa™ 555, and E. coli lysate was randomly direct-labeled at free amines with Alexa™ 647. Three replicate arrays were passivized by applying a mixture of BSA and mercaptohexanol for one hour. The arrays were blocked with unlabelled E. coli lysate for one hour, then washed three times with TBST (0.05% Tween) followed by three times with water. A mixture of labeled transferrin and labeled E. coli lysate was applied to the three replicate arrays and incubated for three hours. The arrays were again washed three times with TBST (0.05% Tween) followed by three times with water, and scanned at 555 nm and 647 nm using an array reader. Polypeptides were ranked as candidates for inclusion as affinity elements of synbodies by computing a score for each polypeptide equal to the mean raw 555 nm intensity over the six replicate features, squared, divided by the mean raw 647 nm intensity over the six replicate features. This simple scoring function tends to favor candidate polypeptides that bind at least moderate affinity, since otherwise the 555 nm intensity would be relatively lower, and that are relatively specific, since otherwise the 647 nm intensity would be relatively higher and contribute to a relatively lower score. Many variations of this ranking and identification process can be used, such as, by way of non-limiting examples, two-color comparisons against other competitors; comparisons with data taken in separate experiments with respect to other targets; and use of scoring functions taking into account other factors, employing other functional relationships, and/or involving statistical analysis and/or preprocessing of data and/or correcting for background fluorescence and/or other factors affecting the accuracy of the measured intensities. Ten polypeptides (Table 1) were identified for further evaluation for use as affinity elements in synbodies by choosing the polypeptides having the highest score (one polypeptide was rejected as difficult to synthesize, so the polypeptides chosen were ten of those having the eleven highest scores).
After preparation of the array in accordance with the methods previously described in Example 2, the array was washed one time for five minutes in 7.33% acetonitrile, 37% isopropanol, 0.55% trifluoroacetic acid, and 55% water. Alexa 555 labeled target protein transferrin was applied, together with Alexa 647 labeled E. coli lysate competitor, to the prewashed array and to an identical array without organic prewash. […] 5,010 on the array without organic prewash, but ranked no. 9601 on the prewashed array. Conversely, peptide TRF-21, shown by SPR analysis to be a relatively strong binder of transferrin, rose in rank from 84 on the non-prewashed array to rank no. 5 on the prewashed array.

Transferrin [3] = target: T1, Transferrin; experiment: SPR analysis of peptide pairs for binding to distinct sites on target; conditions: peptides applied in 1:1 mixtures in pairs
From the text: The transferrin target was immobilized on a Biacore T100 SPR chip, and candidate polypeptides were applied in 1:1 mixtures in pairs and response data obtained, in accordance with the methods described in Example 4 above. As illustrated in FIGS. 12A-D, upon flowing candidate polypeptides over the immobilized target, ideally one polypeptide applied alone would bind to a first binding site on the target and produce a first characteristic SPR response level (FIG. 12A), the other polypeptide would bind to a second, distinct binding site on the target, producing a second characteristic response level (FIG. 12B), and a mixture of the two polypeptides together (at the same concentrations as before) would produce a response level approximating the sum of the response levels produced by each polypeptide alone, as the polypeptides bind to distinct binding sites (FIG. 12C).

TNF-α = TNF-α (Homo sapiens, UniProt P01375); experiment: SPR verification of candidate TNF-α binding synbodies (Biacore T-100); conditions: 1.25 μM to 9.8 nM
Method: Candidate TNF-α binding synbodies were screened by surface plasmon resonance (SPR) on a Biacore T-100 SPR instrument to verify binding for TNF-α. A CM5 chip was activated using standard amine coupling chemistry and TNF-α was immobilized. Each synbody was prepared in HBS-N buffer with excess carboxymethyl dextran added to the running buffer to minimize non-specific binding to the chip surface. A concentration series of each synbody was prepared where the concentrations ranged from 1.25 μM to 9.8 nM.

[4] = target: Tumor Necrosis Factor-alpha (TNF-α) (Homo sapiens, UniProt P01375); experiment: Chromatographic affinity screening on protein-coupled pipette tips with MALDI readout; assay type: binding; conditions: 500 nM each synbody in E. Coli Lysate
Method: The target proteins, Transferrin (TRF) and Tumor Necrosis Factor-alpha (TNF-α), were each covalently attached to pipette tips (one protein per pipette tip) containing carboxymethyl dextran matrix (Intrinsic Bioprobes, Tempe, Ariz.) using standard amine coupling chemistry. The unmodified tips were first washed with 0.5 M HCl followed by acetone. Each tip was activated using a 50 mg/mL solution of […] (CDI) in N-methyl-pyrolidone (NMP). Each tip was washed with NMP to remove excess CDI. Each protein was prepared as a 50 μg/mL solution in 100 mM sodium acetate pH 5.0 and cycled through a CDI activated tip for 30 minutes. Un-reacted CDI in the tip was then quenched with the addition of 1.5 M ethanolamine pH 8.5 and then washed extensively with HBS-N buffer. The protein-coupled tips were then stored in HBS-N buffer at 4° C. Negative control tips were prepared in the same manner except that no protein was added to the sodium acetate solution during the protein coupling step.
A library of 14 candidate synbodies (Table 9) was prepared by making 12 μM stock solutions in 1× phosphate buffered saline (PBS) of each HPLC purified synbody and […] of each stock solution was added to 600 μL of E. Coli Lysate that had been treated with a protease inhibitor. Thus the final concentration of each synbody was 500 nM.
A negative control pipette tip (blank tip), a TRF tip, and a TNF-α tip, were washed with 0.1% sodium dodecyl sulfate (SDS) to remove any non-covalently bound protein and then washed with HBS buffer. The tips were then incubated for 15 minutes in 150 μL of the synbody library. Each tip was then washed 5 times in 150 μL of HBS-N. This step was then repeated and each tip was washed 5 times in 150 μL of 0.25 M NaCl. Each tip was then washed 5 times in 150 μL of Milli-Q water and this step was repeated. […]
Each elution sample was spotted onto a MALDI plate and analyzed in reflectron mode on a Bruker Daltonics UltraFlex III TOF/TOF MALDI Mass Spectrometer.

[5] = tested on: 8,000 human proteins (GST fusion); experiment: Protein microarray screen (Invitrogen Protoarray Human Protein Microarray, 8,000 features); assay type: binding; conditions: fluorescence intensity
Method: Two biotinylated anti-TRF synbodies (SYN23-26 and SYN 21-22) were applied to a protein microarray having 8,000 features (Invitrogen Protoarray Human Protein Microarray v. 4.0 for immune response biomarker profiling), each feature comprising a distinct human protein (GST fusion) adsorbed to a nitrocellulose coated slide. Application of the synbodies to the microarray was performed in accordance with manufacturer instructions: (see ProtoArray Human Protein Microarray, Invitrogen, Catalog no. PAH052401, Version B, 15 Dec. 2006, 25-0970, Users Manual.) After blocking the array with 1% BSA/PBS/0.1% Tween for 1 hour at 4C with gentle shaking, 120 μl of probing buffer (1×PBS, 5 mM mgCl2, 0.5 mM DTT, 0.05% Triton X-100, 5% glycerol, 1% BSA) with synbody was applied to the array. The prescribed cover slip was placed over the array and adjusted to remove air bubbles. The array was incubated in a 50 ml conical tube, printed side up, for 1.5 hours at 4C without shaking. The array was then removed from the conical tube inserted diagonally into the array chamber, kept on ice. 8 ml probing buffer was added to the chamber wall. The cover slip was removed and the array was incubated in probing buffer for 1 minute on ice. […] The array was dried in the dark for 60 minutes at room temperature, after which it was scanned using a fluorescent microarray scanner and data was taken and analyzed.

pooled human transferrin = target: T2, pooled human transferrin (Homo sapiens, UniProt P02787); experiment: High throughput SPR screening of peptides (Biacore A-100); assay type: binding; conditions: purified peptide, several concentrations; read-out: KD with respect to transferrin
T2 construct: purchased Sigma
Method: Peptide affinity element candidates were screened against target proteins immobilized on the SPR surface. Each target protein was modified with biotin using the following procedure: NHS-LC-LC-Biotin (Pierce Biotechnology) was re-suspended in DMSO at a concentration of 7.13 mM. Each protein was prepared in 100 mM PBS pH 7.5 at a concentration of ˜50 μM. NHS-LC-LC-Biotin was then added to the protein solution at a 3:1 or 5:1 molar ratio. The reaction was performed for 2 hours at room temperature and the protein sample was analyzed by MALDI mass spectrometry to determine the number of biotin molecules added per molecule of protein. Excess NHS-LC-LC-Biotin was removed using a 3 kDa spin filter. The target proteins for which data is shown in this example were pooled human transferrin (Sigma) and purified bovine ubiquitin.
A Biacore A-100 Surface Plasmon Resonance (SPR) system was used to measure the binding response of each peptide to several different target proteins immobilized on a gold surface. […] Each biotinylated protein was injected over a single spot and the amount of protein captured was measured. […]
Data analysis was performed using the A-100 Evaluation software package that analyzes and filters the data using a variety of measures of quality control for each sensorgram. […] In this manner a relative measure of the specificity of binding for each peptide was determined. […]

T1 sequence (P02787 20-698): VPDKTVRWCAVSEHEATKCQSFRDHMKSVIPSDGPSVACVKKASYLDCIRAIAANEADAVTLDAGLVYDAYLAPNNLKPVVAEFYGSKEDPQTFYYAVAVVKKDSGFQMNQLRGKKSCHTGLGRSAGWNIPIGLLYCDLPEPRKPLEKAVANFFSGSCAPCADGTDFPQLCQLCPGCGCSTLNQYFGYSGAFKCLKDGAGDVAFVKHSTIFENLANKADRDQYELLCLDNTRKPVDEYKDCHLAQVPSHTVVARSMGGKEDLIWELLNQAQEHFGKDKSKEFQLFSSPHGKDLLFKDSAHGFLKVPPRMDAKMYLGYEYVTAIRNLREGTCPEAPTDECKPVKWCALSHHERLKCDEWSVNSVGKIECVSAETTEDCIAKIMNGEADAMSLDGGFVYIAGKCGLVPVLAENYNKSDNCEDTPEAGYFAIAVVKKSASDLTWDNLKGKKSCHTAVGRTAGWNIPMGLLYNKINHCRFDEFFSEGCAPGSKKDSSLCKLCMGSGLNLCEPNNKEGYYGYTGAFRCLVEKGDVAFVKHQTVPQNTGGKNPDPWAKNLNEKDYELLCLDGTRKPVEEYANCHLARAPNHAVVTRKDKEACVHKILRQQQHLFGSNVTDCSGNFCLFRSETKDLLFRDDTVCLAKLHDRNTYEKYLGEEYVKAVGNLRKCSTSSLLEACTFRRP
Chain of TNF-α (P01375 77-233 limits assumed, species assumed): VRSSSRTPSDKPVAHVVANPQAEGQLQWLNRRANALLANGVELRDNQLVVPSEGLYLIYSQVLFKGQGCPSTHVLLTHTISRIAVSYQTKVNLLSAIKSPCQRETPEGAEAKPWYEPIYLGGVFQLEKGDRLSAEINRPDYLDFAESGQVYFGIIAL
Chain of Tumor Necrosis Factor-alpha (TNF-α) (P01375 77-233 limits assumed, species assumed): as above
T2 sequence (P02787 20-698): as the sequence (P02787 20-698) above

Substance: FRGWAHIFFGPHVIYRGGSC [TRF23]
Kd (Transferrin [1]): ~50 µM
Rank -- prewash (Transferrin [2]; array with organic prewash): 2091
Rank - non-prewash (Transferrin [2]; array without organic prewash): 2722
binding to distinct sites on transferrin (Transferrin [3]): bind distinct sites on transferrin

Substance: I: AHKVVPQRQIRHAYNRYGSGKC / II: FRGWAHIFFGPHVIYRGGSG (amide I:21-II:C) [SYN23-26]
highest affinity target from a library of 8,000 [5]: PCCA

Substance: TNF1-TNF4-KC-stBu: lysine-linked synbody (peptide 1 FMNYPIKVPILVVPIGRGSGKC(StBu); peptide 2 MKSIIPMSVAQHQGPIKGSG; not fully specified)
binding to TNF-α (sensorgrams) (TNF-α): no binding
MALDI peak in TNF-α tip elution (retention by target) [4]: no peak was observed

Now from value to substance, other results behind:

binding to TNF-α (sensorgrams) (TNF-α): relatively strong binding kinetics
Substance: TNF1-TNF10-KC-stBu: lysine-linked synbody (peptide 1 FRGWAHIFFGPHVIYRGGSGKC(StBu); peptide 2 MKSIIPMSVAQHQGPIKGSG; not fully specified)
MALDI peak in TNF-α tip elution (retention by target) [4]: showed a peak

Kd (pooled human transferrin): 78.9 ± 27 µM
Substance: ARDLLIQKNSGQDVDHRGSC [TRF101]
